test system: not given; assay: not given; conditions: blood; cited from earlier work

Molecule	half-life
heparin	approximately 80 minutes

molecular target: T1, fVIIa/TF (Homo sapiens, UniProt P08709); assay: fX activation assay; type: biochemical; conditions: 100 pM fVIIa, 5 pM TF, 175 nM fX, 5-min incubation, S-2765 substrate, read-out: IC50 TF/FVII/FX
T1 construct: Single-chain fVII may be converted to two-chain fVIIa by factor Xa, factor XIIa, factor IXa, fVIIa or thrombin in vitro
Protocol: Inhibitory Compounds are Identified in a fX Activation Assay:
The compounds are dissolved in DMSO and mixed with a solution of fVIIa in Ca^2 +-containing buffer (1+5). 30 μl of this mixture was then mixed with 45 μl TF (relipidated in PC/PS vesicles) and 25 μl of a solution containing fX, all in Ca^2 +-containing buffer. This gives final concentrations of 100 pM fVIIa, 5 pM TF, 175 nM fX and various concentrations of the compounds. After a 5-min incubation, the fVIIa/TF-catalyzed activation of fX is terminated by the addition of 50 μl buffer containing enough EDTA to give an excess over the Ca^2+ ions present. 50 μl of a 2-mM solution of S-2765 (fXa substrate) is then added and the fXa formed is allowed to hydrolyze the substrate for 10 minutes during which the absorbance at 405 nm is continuously monitored in a SPECTRAmax™ 340 plate reader. The slope of the absorption curve is compared to that of a control where DMSO alone was added to fVIIa/TF/fX.
IC50 TF/FVII/FX: The IC50 value in μM found from the FX activation assay

T1 sequence (P08709 213-466 limits assumed): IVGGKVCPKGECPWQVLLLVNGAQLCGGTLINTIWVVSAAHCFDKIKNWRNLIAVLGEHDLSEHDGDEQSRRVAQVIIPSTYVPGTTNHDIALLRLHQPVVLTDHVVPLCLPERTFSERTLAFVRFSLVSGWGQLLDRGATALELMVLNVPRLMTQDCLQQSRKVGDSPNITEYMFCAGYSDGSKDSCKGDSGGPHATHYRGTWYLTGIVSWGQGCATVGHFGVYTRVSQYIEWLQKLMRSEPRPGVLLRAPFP
T1 sequence (P08709 61-212 limits assumed): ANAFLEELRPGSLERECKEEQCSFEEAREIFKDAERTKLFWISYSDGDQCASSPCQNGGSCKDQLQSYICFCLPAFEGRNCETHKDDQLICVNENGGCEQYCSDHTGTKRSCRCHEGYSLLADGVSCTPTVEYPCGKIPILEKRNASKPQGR
T1 sequence (P13726 33-295 partner): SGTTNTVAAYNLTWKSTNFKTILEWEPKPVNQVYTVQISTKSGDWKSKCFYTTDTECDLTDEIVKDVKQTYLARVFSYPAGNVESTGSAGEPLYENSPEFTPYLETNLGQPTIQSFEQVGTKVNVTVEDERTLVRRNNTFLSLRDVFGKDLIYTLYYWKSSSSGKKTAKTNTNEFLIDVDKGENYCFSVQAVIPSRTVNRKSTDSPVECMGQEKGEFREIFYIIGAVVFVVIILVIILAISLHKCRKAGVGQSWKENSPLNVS

IC50 [nM]	Molecule
3100	O=c1oc(-c2ccccc2F)nc2ccc(C(F)(F)F)cc12 [Example 95, 2-(2-Fluoro-phenyl)-6-trifluoromethyl-benzo[d][1,3]oxazin-4-one]
2800	O=c1oc(-c2cccnc2Cl)nc2cccc([N+](=O)[O-])c12 [Example 87, 2-(2-Chloro-pyridin-3-yl)-5-nitro-benzo[d][1,3]oxazin-4-one]
170	O=c1oc(-c2c(F)cccc2F)nc2cccc(Cl)c12 [Example 116, 5-Chloro-2-(2,6-difluoro-phenyl)-benzo[d][1,3]oxazin-4-one]

More lines, now with the values behind:

Molecule	IC50 [nM]
Cc1cccc(-c2nc3ccccc3c(=O)o2)c1 [Example 13, 2-m-Tolyl-4H-3,1-benzoxazin-4-one]	600
O=c1oc(-c2ccccc2[N+](=O)[O-])nc2cccc([N+](=O)[O-])c12 [Example 83, 5-Nitro-2-(2-nitro-phenyl)-benzo[d][1,3]oxazin-4-one]	320
Cc1ccc2nc(-c3c(F)cccc3Cl)oc(=O)c2c1 [Example 41, 2-(2-Chloro-6-fluorophenyl)-6-methyl-4H-3,1-benzoxazin-4-one]	900
COc1ccc(Br)c(-c2nc3ccccc3c(=O)o2)c1 [Example 43, 2-(2-Bromo-5-methoxy-phenyl)-4H-3,1-benzoxazin-4-one]	1100
COC(=O)c1cccc2nc(-c3ccccc3F)oc(=O)c12 [Example 75, 2-(2-Fluoro-phenyl)-4-oxo-4H-benzo[d][1,3]oxazine-5-carboxylic acid methyl ester]	5600

From patent publication US6180625A, “Heterocyclic compounds regulating clotting” (Novo Nordisk A/S, priority 1998, dated 2001)
